Data published in a melting point compilation (Tetko et al.).

With `CCN(CC)S(=O)(=O)c1ccc(N2CCN(C)CC2)c(N)c1` the melting point was 148 to 152 °C.

In the case of `O=C(O)CCC1Cc2ccccc2NC1=O` (stereo not given), the melting point is reported as 174 to 176 °C.

In the case of `CCOc1ccc(C(C)=O)cc1OCC`, the melting point is reported as 49 to 51 °C.

`CC1C(=O)NC1c1ccccc1` (stereo not given) gave a melting point of 92 to 94 °C.

Molecule `O=C(O)c1ccc(S(=O)(=O)NCC2CCCO2)cc1` (stereo not given) has a melting point of 169 to 171 °C.

Molecule `O=C(O)c1cccc(S(=O)(=O)Nc2ccc(I)cc2)c1` has a melting point of 260 to 262 °C.

Molecule `O=C(O)CCOc1cccc([N+](=O)[O-])c1` has a melting point of 111 to 113 °C.

`O=C(O)c1cc(C2CC2)nc2onc(-c3ccccc3)c12` gave a melting point of 213 to 215 °C.

For `Nc1ccc(C(=O)N2CCC(CO)CC2)cc1`, the melting point was 138 to 140 °C.

`NCc1ccc(S(=O)(=O)N2CCOCC2)cc1` showed a melting point of 121 to 123 °C.

Molecule `O=C(O)CCCS(=O)(=O)c1ccc(Br)cc1` has a melting point of 117 to 119 °C.

In the case of `Cc1cc(C)cc(N(CCC(=O)O)S(=O)(=O)c2ccc(Br)cc2)c1`, the melting point is reported as 133 to 135 °C.

Molecule `COc1cc(C(C)=O)ccc1S(=O)(=O)C(F)F` has a melting point of 134 to 136 °C.

With `NS(=O)(=O)c1ccc2c(c1)CC(C(=O)O)CO2` (stereo not given) the melting point was 213 to 215 °C.

`CN(C)C=Nc1[nH]ncc1C#N` showed a melting point of 159 to 161 °C.

`Cc1nn(-c2cccc(C(F)(F)F)c2)c2sc(C(=O)O)cc12` gave a melting point of 271 to 273 °C.

`CCCN(CCC)C(=O)c1ccc(N)cc1` gave a melting point of 81 to 83 °C.

Work on `Cc1ccc(-c2cc(N)nc(-c3ccccc3)c2)cc1` yielded a melting point of 110 to 112 °C.

Molecule `CCCS(=O)(=O)N1CCC(N)CC1` has a melting point of 49 to 51 °C.

`O=Cc1cnn(C2CCS(=O)(=O)C2)c1` (stereo not given) showed a melting point of 111 to 113 °C.

For `NNC(=O)c1cccc(S(=O)(=O)N2CCCC2)c1`, the melting point was 153 to 155 °C.

With `Nc1cc(-c2cccc(Cl)c2Cl)[nH]n1` the melting point was 110 to 112 °C.

In the case of `CNCc1cn(-c2ccccc2)nc1-c1ccc(Cl)cc1`, the melting point is reported as 65 to 67 °C.

Molecule `COC(=O)c1cc(Cl)c2ccccc2n1` has a melting point of 121 to 123 °C.

Work on `CC(C)CCOc1ccc(C2(C)NC(=O)NC2=O)cc1` (stereo not given) yielded a melting point of 110 to 112 °C.

Work on `CCOC(=O)CS(=O)(=O)Cc1ccccc1` yielded a melting point of 49 to 51 °C.

With `O=C(CCl)NCc1ccc(F)cc1` the melting point was 92 to 95 °C.

In the case of `Cc1cc(C(=O)CC#N)c(C)n1CC(F)(F)F`, the melting point is reported as 150 to 152 °C.

`N#Cc1cccc(OCc2ccoc2C(=O)O)c1` gave a melting point of 177 to 179 °C.

With `O=C(O)Cn1nnc(COc2ccccc2)n1` the melting point was 111 to 113 °C.

For `O=C(O)C1CCCN(C(=O)Nc2ccccc2F)C1` (stereo not given), the melting point was 139 to 141 °C.

Molecule `O=C(O)c1ncc(Cl)cc1Cl` has a melting point of 139 to 141 °C.

For `NC1CCCc2[nH]ccc21` (stereo not given), the melting point was 83 to 85 °C.

Molecule `O=CCCc1nc2ccccc2o1` has a melting point of 62 to 64 °C.

In the case of `O=C(O)C1(c2ccc(Br)cc2)CCC1`, the melting point is reported as 117 to 119 °C.

In the case of `N=C(N)Nc1nc2ccccc2o1`, the melting point is reported as 179 to 181 °C.

With `CC(C)c1cc(N)no1` the melting point was 64 to 66 °C.

For `Cc1cc(Nc2nc3ccccc3nc2Cl)n(-c2ccccc2)n1`, the melting point was 178 to 180 °C.

Work on `CN(C)S(=O)(=O)c1cccc(-c2nnc(S)n2N)c1` yielded a melting point of 200 to 202 °C.

With `O=Cc1c(Cl)cccc1OC(F)F` the melting point was 37 to 39 °C.

Work on `O=C(CCl)N1CCN(S(=O)(=O)c2c(F)cccc2F)CC1` yielded a melting point of 119 to 121 °C.

In the case of `CN1C(=O)CCC(C(=O)O)C1c1cccs1` (stereo not given), the melting point is reported as 154 to 156 °C.

Work on `N#Cc1cc2ccccc2o1` yielded a melting point of 33 to 35 °C.

Molecule `CSc1cccc(NC(=O)C(C)Cl)c1` (stereo not given) has a melting point of 81 to 83 °C.

In the case of `O=C(O)c1ccc(CS(=O)(=O)c2ccccc2)o1`, the melting point is reported as 180 to 182 °C.

For `CC(C)C(=O)Nc1cc(C(=O)O)c(F)cc1F`, the melting point was 233 to 235 °C.

For `O=C1NC(=O)C(Cc2ccccc2)(c2ccccc2)N1` (stereo not given), the melting point was 209 to 211 °C.

In the case of `CC(Cl)C(=O)Nc1ccc(OCc2ccccc2)cc1` (stereo not given), the melting point is reported as 141 to 145 °C.

Molecule `CC(C)(C)OC(=O)N1C(C(=O)O)CC2CCCCC21` (stereo not given) has a melting point of 133 to 135 °C.

`Nc1ncc(Br)cc1F` showed a melting point of 87 to 89 °C.

Molecule `CS(=O)(=O)c1cc(C(=O)O)cs1` has a melting point of 204 to 206 °C.

For `Sc1nnc(-c2cc3ccccc3o2)o1`, the melting point was 249 to 251 °C.

With `CN1CCN(C(N)=O)C(c2ccccc2)C1` (stereo not given) the melting point was 94 to 96 °C.

Molecule `CC(C)OCc1ccc(C(=O)O)cc1` has a melting point of 114 to 116 °C.

For `O=c1nc(CCl)[nH][nH]1`, the melting point was 179 to 181 °C.

In the case of `O=C(O)C1CC(=O)N(c2ccccc2F)C1` (stereo not given), the melting point is reported as 130 to 135 °C.

With `O=c1[nH]c2ccccc2n2cncc12` the melting point was 349 to 351 °C.

Molecule `COc1ccc(NS(=O)(=O)c2ccc(N)cc2)c(OC)c1` has a melting point of 119 to 121 °C.

In the case of `CCC(=O)C(N)=O`, the melting point is reported as 94 to 96 °C.

With `CN(c1ccc(C(=O)O)cc1)C1CCCCC1` the melting point was 148 to 150 °C.

Work on `CC(C)c1cc(C(=O)O)on1` yielded a melting point of 74 to 76 °C.

`CC(N)c1ccc(NC(=O)Nc2ccccc2)cc1` (stereo not given) gave a melting point of 165 to 167 °C.

For `NC(Cc1c[nH]c2cc(F)ccc12)C(=O)O` (stereo not given), the melting point was 283 to 285 °C.

With `COC(=O)c1cc(SC(=O)N(C)C)c(OC)cc1[N+](=O)[O-]` the melting point was 139 to 141 °C.

Molecule `O=C(O)c1ccc(SC(F)F)cc1` has a melting point of 154 to 156 °C.

`O=C1NC(=O)N(Cc2cccs2)C1=O` showed a melting point of 170 to 172 °C.

With `OCCn1c(CSc2nnc(-c3ccc4c(c3)OCO4)o2)nc2ccc(Cl)cc21` the melting point was 202 to 204 °C.

For `COc1cc(C2(C(=O)O)CCC2)ccc1C`, the melting point was 125 to 127 °C.

`O=C(O)CC1(CC(=O)c2ccc(Cl)s2)CCCCC1` showed a melting point of 102 to 104 °C.

Molecule `O=C(O)COc1ccc2c(c1)CCC2` has a melting point of 154 to 156 °C.

With `Cc1ccc(-n2[nH]c(C(=O)O)c(CCO)c2=O)cc1` the melting point was 199 to 201 °C.

`N#CC1CNCCN1Cc1ccccc1` (stereo not given) gave a melting point of 98 to 100 °C.

With `CS(=O)c1cccc(N)c1` (stereo not given) the melting point was 110 to 112 °C.

For `CCOC1CCN(C(=O)Nc2cccc(C(C)=O)c2)CC1`, the melting point was 95 to 97 °C.

With `CC(C)n1cc(S(=O)(=O)Cl)cn1` the melting point was 53 to 55 °C.

`NCc1cccc(NC(N)=O)c1` gave a melting point of 143 to 145 °C.

`Cc1ccc(S(=O)(=O)OC(c2nc(C)cs2)C(F)(F)F)cc1` (stereo not given) showed a melting point of 105 to 107 °C.

`Nc1c(-c2ccccc2)nc2ccccn12` gave a melting point of 152 to 155 °C.

`COCCOc1ccc(C(=O)O)cc1[N+](=O)[O-]` gave a melting point of 134 to 136 °C.

With `O=Cc1ccc(N2CCCCC2)s1` the melting point was 73 to 75 °C.

Molecule `CN(C)Cc1ccc(C(=N)N)cc1` has a melting point of 124 to 126 °C.

`O=C(CCl)NC(=O)Nc1ccc2c(c1)OCCCO2` gave a melting point of 110 to 112 °C.

With `O=C1Nc2ccc(-c3ccccc3)cc2C1=O` the melting point was 214 to 216 °C.

For `O=C=Nc1ccc2c(c1)OCO2`, the melting point was 48 to 51 °C.

Work on `NC(=O)c1c(N)sc2c1CCCCC2` yielded a melting point of 195 to 199 °C.

`O=C(O)c1cc[nH]c1` gave a melting point of 129 to 131 °C.

With `CC(C)n1ncc(C(=O)O)c1C1CC1` the melting point was 99 to 101 °C.

`CC(C)(O)c1cn(-c2ccccc2)nn1` showed a melting point of 89 to 91 °C.

Molecule `Cc1nc(CC(N)=NO)no1` has a melting point of 142 to 144 °C.

Work on `Nc1cc(C2CC2)nc2ccc(Cl)cc12` yielded a melting point of 96 to 98 °C.

`CN(C)c1nccc(C=O)n1` showed a melting point of 50 to 52 °C.

In the case of `Oc1[nH]nc2c1CC(c1ccccc1)CC2` (stereo not given), the melting point is reported as 269 to 271 °C.

`CN1CCCC1C(=O)O` (stereo not given) gave a melting point of 111 to 113 °C.

`O=C(O)Cc1cc2c(cc1Br)OCCO2` showed a melting point of 220 to 222 °C.

For `CC(C)c1ccc(-n2ccnc2SCC(=O)O)cc1`, the melting point was 80 to 82 °C.

`Cn1ccnc1-c1noc(N)n1` showed a melting point of 197 to 199 °C.

In the case of `COc1ccc(NC#N)cc1Cl`, the melting point is reported as 95 to 97 °C.

For `NC(=O)c1ccn(-c2ccccc2N)n1`, the melting point was 161 to 163 °C.

With `CCOC(=O)c1oc(N)nc1C` the melting point was 219 to 221 °C.

With `O=C(O)CSc1nccn1-c1ccc(C(F)(F)F)cc1` the melting point was 119 to 121 °C.
